Results from PMC5519559, “Structure-Based Discovery of Small Molecule Inhibitors of Cariogenic Virulence” (Scientific Reports, 2017).

Key:
[1] = target: T1, GtfC (Streptococcus mutans, UniProt P13470); experiment: SDS-PAGE in-gel zymographic glucan-production assay at […]; type: cell-based; design: native GtfC from culture supernatant of S. mutans GtfBD double mutant; conditions: read-out: % inhibition at 25 μM
Target sequence in this assay (P13470 35-1455): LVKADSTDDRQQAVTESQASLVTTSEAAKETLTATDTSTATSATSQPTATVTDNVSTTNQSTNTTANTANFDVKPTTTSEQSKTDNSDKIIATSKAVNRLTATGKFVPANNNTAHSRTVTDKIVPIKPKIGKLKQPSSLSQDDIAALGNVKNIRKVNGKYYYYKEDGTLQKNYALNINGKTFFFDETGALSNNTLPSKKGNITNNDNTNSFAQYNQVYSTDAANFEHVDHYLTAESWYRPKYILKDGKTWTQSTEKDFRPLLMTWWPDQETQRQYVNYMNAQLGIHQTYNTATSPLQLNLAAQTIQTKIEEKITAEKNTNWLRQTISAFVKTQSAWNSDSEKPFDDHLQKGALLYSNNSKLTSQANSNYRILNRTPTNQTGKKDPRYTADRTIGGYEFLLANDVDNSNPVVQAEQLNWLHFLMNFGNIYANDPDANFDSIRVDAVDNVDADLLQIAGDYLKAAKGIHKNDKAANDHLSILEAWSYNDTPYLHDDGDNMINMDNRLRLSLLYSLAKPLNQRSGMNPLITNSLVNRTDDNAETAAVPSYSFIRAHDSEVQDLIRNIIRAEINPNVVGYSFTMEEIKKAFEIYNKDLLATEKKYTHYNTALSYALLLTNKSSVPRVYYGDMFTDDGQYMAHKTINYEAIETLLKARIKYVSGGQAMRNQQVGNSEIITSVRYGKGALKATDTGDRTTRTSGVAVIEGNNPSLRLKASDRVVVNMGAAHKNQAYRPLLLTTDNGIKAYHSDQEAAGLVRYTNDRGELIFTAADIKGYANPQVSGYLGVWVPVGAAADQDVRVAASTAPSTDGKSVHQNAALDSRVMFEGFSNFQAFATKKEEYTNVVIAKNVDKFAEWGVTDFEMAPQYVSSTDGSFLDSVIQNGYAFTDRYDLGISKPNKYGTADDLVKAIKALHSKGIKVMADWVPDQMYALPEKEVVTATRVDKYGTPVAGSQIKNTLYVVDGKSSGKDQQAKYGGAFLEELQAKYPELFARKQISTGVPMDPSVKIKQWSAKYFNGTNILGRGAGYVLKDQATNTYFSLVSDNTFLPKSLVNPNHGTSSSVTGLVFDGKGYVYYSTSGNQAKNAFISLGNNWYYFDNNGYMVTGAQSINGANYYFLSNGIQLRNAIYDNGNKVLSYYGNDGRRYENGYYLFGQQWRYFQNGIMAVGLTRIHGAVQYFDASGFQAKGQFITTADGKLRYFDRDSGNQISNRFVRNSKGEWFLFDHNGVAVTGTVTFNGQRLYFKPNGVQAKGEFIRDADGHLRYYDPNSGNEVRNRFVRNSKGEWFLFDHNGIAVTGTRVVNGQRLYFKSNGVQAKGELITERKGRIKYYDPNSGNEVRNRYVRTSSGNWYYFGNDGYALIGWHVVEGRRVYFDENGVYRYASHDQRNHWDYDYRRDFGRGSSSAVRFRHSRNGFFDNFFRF

[2] = target: T2, GtfB (Streptococcus mutans, UniProt P08987); experiment: as above; type: cell-based; design: native GtfB from culture supernatant of S. mutans GtfCD double mutant; conditions: read-out: % inhibition at 25 μM
Target sequence in this assay (P08987 35-1476): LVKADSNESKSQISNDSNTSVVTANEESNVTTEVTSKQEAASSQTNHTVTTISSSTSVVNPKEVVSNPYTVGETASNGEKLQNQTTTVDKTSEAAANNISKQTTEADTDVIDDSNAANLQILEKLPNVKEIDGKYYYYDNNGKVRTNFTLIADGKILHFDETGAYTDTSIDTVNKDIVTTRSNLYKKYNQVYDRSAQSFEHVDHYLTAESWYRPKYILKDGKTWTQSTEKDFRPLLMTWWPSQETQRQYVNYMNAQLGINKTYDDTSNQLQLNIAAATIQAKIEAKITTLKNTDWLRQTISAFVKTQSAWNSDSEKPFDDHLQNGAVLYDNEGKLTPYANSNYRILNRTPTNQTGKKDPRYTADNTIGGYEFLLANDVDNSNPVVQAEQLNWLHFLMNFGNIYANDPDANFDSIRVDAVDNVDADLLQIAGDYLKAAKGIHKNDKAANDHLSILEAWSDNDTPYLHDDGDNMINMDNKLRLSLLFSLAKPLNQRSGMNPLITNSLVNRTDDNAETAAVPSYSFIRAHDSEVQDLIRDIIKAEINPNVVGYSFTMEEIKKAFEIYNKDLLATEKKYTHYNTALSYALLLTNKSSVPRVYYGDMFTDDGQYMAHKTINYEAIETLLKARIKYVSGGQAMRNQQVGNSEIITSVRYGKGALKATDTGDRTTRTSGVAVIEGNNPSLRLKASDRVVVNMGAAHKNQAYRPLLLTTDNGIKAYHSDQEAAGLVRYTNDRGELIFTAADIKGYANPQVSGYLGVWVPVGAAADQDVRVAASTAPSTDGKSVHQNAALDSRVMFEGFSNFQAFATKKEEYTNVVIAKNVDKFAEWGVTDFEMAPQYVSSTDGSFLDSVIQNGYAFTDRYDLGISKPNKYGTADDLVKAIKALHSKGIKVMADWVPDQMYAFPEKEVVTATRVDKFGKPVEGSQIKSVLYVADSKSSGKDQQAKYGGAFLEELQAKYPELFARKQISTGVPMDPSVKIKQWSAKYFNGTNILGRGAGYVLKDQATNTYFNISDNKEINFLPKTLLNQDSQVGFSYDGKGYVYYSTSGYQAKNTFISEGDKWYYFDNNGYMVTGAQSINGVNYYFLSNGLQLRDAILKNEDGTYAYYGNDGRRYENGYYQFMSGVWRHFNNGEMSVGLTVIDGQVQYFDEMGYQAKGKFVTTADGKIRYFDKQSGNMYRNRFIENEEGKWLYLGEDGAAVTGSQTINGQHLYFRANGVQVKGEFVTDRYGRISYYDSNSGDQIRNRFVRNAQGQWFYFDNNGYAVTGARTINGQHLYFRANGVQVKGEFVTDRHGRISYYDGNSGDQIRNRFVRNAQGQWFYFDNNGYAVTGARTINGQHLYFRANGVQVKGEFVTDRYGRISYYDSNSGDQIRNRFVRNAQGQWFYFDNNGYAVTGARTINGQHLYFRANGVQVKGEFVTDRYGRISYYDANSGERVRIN

[3] = target: T2, GtfB; experiment: Binding study (Octet, details in supplement); weak inactive analog; design: catalytic domain, residues 268 aa–1074 aa
Target sequence in this assay (P08987 268-1074): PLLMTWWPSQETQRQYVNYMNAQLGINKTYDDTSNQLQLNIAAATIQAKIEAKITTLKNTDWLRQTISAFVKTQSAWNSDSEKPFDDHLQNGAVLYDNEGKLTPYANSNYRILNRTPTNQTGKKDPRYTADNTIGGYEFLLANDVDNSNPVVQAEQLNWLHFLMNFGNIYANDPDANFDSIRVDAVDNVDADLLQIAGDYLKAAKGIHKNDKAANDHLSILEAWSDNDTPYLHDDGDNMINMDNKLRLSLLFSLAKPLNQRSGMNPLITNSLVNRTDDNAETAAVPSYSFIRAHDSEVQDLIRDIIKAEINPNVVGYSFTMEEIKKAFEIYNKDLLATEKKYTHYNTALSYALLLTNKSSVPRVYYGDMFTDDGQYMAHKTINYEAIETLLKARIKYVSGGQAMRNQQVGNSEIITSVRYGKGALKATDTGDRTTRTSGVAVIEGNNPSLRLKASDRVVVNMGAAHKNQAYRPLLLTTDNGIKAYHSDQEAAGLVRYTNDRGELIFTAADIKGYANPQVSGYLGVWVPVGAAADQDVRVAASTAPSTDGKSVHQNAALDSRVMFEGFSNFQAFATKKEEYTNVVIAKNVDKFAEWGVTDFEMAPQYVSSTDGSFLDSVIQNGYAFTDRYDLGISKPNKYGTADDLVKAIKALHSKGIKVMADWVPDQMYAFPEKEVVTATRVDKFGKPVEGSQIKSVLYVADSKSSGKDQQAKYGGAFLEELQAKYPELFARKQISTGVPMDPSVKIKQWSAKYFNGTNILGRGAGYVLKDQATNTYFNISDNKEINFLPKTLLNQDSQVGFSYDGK

[4] = target: T1, GtfC; experiment: Bio-layer interferometry (OctetRed96), […] binding model; supported by zymographic inhibition ([…] at […]); design: his-tagged catalytic domain, residues 295 aa–1103 aa
Target sequence in this assay (P13470 295-1103): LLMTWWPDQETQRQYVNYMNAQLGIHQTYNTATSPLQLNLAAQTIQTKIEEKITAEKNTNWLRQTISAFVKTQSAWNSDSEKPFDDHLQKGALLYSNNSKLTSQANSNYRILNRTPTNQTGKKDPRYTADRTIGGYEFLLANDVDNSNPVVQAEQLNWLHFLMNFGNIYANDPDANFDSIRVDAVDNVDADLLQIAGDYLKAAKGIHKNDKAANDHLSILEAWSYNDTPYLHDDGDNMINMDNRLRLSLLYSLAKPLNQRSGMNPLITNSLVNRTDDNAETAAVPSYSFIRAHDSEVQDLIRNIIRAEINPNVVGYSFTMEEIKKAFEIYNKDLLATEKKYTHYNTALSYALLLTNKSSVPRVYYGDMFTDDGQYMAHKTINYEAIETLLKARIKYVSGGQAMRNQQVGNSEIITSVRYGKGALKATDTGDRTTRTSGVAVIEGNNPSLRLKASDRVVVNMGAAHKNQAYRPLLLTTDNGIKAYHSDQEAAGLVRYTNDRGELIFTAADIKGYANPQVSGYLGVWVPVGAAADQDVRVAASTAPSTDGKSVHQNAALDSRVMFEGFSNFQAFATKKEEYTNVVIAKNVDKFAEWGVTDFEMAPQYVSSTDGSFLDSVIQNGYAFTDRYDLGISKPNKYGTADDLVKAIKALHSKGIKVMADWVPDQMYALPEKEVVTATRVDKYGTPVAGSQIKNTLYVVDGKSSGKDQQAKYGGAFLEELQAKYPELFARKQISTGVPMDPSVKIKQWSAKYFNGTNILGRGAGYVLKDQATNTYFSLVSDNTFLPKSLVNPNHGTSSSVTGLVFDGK

[5] = target: T2, GtfB; experiment: as above; design: his-tagged catalytic domain, residues 268 aa–1074 aa
Target sequence in this assay (P08987 268-1074): as the sequence (P08987 268-1074) above

O=C(c1ccc(F)cc1)c1ccc(-c2[nH]c(-c3ccc([N+](=O)[O-])cc3O)nc2-c2ccccc2)cc1 [#G16]
inhibition at 25 µM [1]: ~70%
inhibition at 25 µM [2]: ~60%

O=C(Nc1ccccc1)c1cc2cc([N+](=O)[O-])ccc2s1 [#G43-D]
Kd [3]: 68 µM

NC(=O)c1ccccc1NC(=O)c1cc2cc([N+](=O)[O-])ccc2s1 [#G43]
Kd [4]: 0.0469 µM
Kd [5]: 3.7 µM
